How the values were obtained:
AML model (C1498 cells) = assay: In vivo treatment of AML with adjuvant (chemo-immunotherapy); set-up: species or system C57BL/6J mice; conditions: leukemia-bearing mice, up to 21 days post-tumor inoculation, DOX 5 mg/kg, MPLA 20 μg
Method: AML model was established by intravenous injection of 5×10^6 C1498 cells on day 0. On day 8 and day 15, saline, LNT cell+Adjuvant, free DOX and LNT cell/DOX+Adjuvant were administrated intravenously with DOX dose of 5 mg/kg and adjuvant (monophosphoryl lipid A, MPLA) 20 μg per mouse. Specifically, MPLA was intravenously injected 10 h post-injection of LNT cell or LNT cell/DOX. The bioluminescence images of mice were captured every 3 days. The exposure time was 2 min. On day 13, 400 μL blood was collected via the orbital vein. 200 μL blood was treated with ACK buffer and centrifuged at 800 g for 8 min to obtain pellets of white blood cells. After staining with BV421-CD3, PE-CD4 and APC-CD8, the samples were analyzed by flow cytometry. Another 200 μL blood in blood serum collection tubes (BD Microtainer 365967) was centrifuged at 3000 rpm for 10 min. The upper serum was detected with the following ELISA kits: IFN-γ (BioLegend 430804) and TNF-α (BioLegend 430904).

**Q.** Which “AML progression (bioluminescence of AML cancer cells)” value (AML model (C1498 cells)) does the source give for COc1cccc2c1C(=O)c1c(O)c3c(c(O)c1C2=O)C[C@@](O)(C(=O)CO)C[C@@H]3O[C@H]1C[C@H](N)[C@H](O)[C@H](C)O1.Cl [free DOX, Doxorubicin hydrochloride] here?
**A.** partially inhibited

**Q.** What about the “IC50, in vitro cytotoxicity against C1498 cells” value (C1498 cells) of the same compound?
**A.** 0.32 µg/mL

From patent publication US20230381314A1, “ATTENUATED CANCER CELLS AND METHODS RELATED THERETO” (priority 2020, published 2023)
